Results reported in ChEMBL document CHEMBL1201862, “PubChem BioAssay data set” (2004).
Calls of active or inactive are those of the source.

Legend:
[1] = viability of HCT116 lacking mutant beta-catenin – cell-based, human colon tumor, dose response (AID 1045); type: functional;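 also: HCT116 colon tumor cells with beta catenin knocked out; cells exposed to compound for 60 hours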
[2] = viability of PTEN-deleted HCT116 cells – cell-based, HCT116 PTEN knockout, dose response (AID 1047); type: functional;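 also: HCT116 colon tumor cells with PTEN knocked out; cells exposed to compound for 60 hours before readout; potency for loss of cell viability measured by luminescence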
Large T antigen = Large T antigen (Simian virus 40, UniProt P03070); type: functional, Betapolyomavirus macacae;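 also: Confirmatory-stage PubChem screen for compounds that inhibit SV40 T antigen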
Large T antigen, sequence (P03070 whole entry): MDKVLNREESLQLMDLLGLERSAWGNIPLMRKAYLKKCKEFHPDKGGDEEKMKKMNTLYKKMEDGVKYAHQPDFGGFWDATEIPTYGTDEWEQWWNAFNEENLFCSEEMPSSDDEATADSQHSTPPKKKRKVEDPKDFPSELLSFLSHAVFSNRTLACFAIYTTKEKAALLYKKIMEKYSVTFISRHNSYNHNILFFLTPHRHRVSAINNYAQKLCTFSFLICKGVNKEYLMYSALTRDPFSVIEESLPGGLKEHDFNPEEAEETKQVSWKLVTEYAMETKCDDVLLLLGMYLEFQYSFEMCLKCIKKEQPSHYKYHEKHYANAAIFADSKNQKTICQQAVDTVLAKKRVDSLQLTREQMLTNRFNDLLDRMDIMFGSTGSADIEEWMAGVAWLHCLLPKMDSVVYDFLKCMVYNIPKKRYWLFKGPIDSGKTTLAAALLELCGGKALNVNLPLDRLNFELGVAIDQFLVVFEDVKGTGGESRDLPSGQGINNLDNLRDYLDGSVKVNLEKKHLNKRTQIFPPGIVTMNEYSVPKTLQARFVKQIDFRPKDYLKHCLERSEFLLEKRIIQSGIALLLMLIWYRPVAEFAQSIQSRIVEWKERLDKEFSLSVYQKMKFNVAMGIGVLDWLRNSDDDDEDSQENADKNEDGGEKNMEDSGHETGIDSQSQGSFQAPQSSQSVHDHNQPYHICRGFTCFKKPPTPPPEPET

[3] = viability of uninfected HEp-2 cells – cell-based, HTS, cytotoxicity control for RSV inhibitor project, dose response (AID 2410); type: functional; details: human respiratory syncytial virus
[4] = biological target: T1, Calpain-2 catalytic subunit (Sus scrofa, UniProt P43367); test: m-calpain protease blockers, concentration series – biochemical, fluorogenic peptide substrate, dose response (AID 1420); type: functional
T1 sequence (P43367 whole entry): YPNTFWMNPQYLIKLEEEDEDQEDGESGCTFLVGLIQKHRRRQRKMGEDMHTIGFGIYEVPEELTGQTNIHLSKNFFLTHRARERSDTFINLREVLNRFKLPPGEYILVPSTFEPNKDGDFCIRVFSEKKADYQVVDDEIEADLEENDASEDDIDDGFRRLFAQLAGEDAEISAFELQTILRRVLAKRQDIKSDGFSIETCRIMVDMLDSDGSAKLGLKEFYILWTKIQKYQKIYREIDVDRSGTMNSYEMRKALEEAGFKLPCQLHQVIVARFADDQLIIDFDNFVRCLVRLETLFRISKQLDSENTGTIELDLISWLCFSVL

[5] = biological target: T2, Polyadenylate-binding protein 1 (Homo sapiens, UniProt P11940); test: MLLE binding blockers, Cy5 peptide tracer – biochemical, fluorescence polarization, Cy5-PAM2 peptide, secondary, miRNA deadenylation inhibitor project, dose response (AID 602260); type: functional; details: read-out: IC50_Mean
T2 sequence (P11940 whole entry, the tested form may be a part): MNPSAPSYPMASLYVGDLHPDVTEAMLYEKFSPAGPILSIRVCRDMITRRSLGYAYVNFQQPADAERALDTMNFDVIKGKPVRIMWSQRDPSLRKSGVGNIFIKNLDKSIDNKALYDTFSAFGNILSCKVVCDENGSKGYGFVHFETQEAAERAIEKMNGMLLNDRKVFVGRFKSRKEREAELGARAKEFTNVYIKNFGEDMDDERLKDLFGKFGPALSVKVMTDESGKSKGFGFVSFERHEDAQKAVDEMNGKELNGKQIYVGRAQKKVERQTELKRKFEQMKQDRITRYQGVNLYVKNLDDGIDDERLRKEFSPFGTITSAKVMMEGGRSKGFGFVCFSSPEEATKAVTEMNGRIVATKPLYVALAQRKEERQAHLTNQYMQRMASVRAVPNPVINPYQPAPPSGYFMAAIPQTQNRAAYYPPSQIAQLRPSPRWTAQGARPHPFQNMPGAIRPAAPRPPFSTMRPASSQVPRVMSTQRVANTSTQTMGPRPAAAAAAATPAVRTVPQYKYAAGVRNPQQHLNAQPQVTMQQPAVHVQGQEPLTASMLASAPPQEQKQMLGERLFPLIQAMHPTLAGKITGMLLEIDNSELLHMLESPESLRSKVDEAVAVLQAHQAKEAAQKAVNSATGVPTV

[6] = biological target: T2, Polyadenylate-binding protein 1; test: MLLE domain peptide-binding blockers, IC50 – biochemical, fluorescence polarization, FITC-PAM2 peptide, dose response (AID 602259); type: functional; details: read-out: IC50_Mean
[7] = fluconazole-exposed Candida albicans growth modulators – fluorescence, retest, confirmation (AID 2467); type: functional, cell-based
[8] = NIH-3T3 fibroblast cytotoxicity, dose response, cytotoxicity control, cell-based, fluorescence, Alamar Blue, secondary assay (AID 2327); type: functional;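 also: NIH-3T3 mouse fibroblasts cultured with fluconazole at 8 µg/mL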
[9] = biological target: T3, Carboxy-terminal domain RNA polymerase II polypeptide A small phosphatase 1 (Homo sapiens, UniProt Q9GZU7); test: CTDSP1 inhibitors, concentration-response, biochemical, absorbance readout, ultra-high-throughput screen actives (AID 540297); type: functional
T3 sequence (Q9GZU7 whole entry): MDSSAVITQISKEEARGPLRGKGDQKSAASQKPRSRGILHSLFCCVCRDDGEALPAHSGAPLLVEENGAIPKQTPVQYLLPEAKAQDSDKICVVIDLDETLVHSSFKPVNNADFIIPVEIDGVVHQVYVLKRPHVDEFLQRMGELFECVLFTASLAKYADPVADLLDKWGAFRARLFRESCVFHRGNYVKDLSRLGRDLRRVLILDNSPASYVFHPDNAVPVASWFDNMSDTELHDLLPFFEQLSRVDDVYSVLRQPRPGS

[10] = biological target: T4, RNA-binding protein pos-1 (Caenorhabditis elegans, UniProt G5EF15); test: disruptors of C. elegans POS-1 RNA interaction – biochemical, fluorescence polarization, dose response (AID 1964);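 also: purified POS-1 fused to maltose binding protein made in E. coli; potency of compounds blocking POS-1 binding to fluorescent RNA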
T4 sequence (G5EF15 whole entry): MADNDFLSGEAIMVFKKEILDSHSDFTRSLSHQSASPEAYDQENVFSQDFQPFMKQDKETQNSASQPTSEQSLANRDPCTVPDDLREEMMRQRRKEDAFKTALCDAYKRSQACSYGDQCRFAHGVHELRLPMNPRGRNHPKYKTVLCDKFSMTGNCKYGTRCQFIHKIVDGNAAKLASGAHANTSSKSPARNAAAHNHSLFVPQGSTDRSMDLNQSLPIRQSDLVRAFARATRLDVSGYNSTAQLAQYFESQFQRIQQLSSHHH

[11] = biological target: T5, Zinc finger protein mex-5 (Caenorhabditis elegans, UniProt Q9XUB2); test: potency of MEX-5 RNA-binding blockers – biochemical, C. elegans, fluorescence polarization, dose response (AID 1960)
T5 sequence (Q9XUB2 whole entry): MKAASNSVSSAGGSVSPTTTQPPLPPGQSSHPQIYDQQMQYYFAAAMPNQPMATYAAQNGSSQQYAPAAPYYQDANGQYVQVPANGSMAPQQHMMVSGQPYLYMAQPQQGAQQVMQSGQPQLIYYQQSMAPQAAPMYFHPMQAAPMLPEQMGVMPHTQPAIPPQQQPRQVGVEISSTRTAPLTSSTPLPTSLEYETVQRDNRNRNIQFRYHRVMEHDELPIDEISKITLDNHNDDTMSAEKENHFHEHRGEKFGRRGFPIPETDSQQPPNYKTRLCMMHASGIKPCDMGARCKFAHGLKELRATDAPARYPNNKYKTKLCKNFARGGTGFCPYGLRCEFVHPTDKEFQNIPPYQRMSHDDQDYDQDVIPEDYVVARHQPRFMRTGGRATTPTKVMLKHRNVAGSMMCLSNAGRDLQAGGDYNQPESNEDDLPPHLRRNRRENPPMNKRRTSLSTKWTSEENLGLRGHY

cells = type: functional
[12] = Luminescence Cell-Based Dose Confirmation HTS to Identify Inhibitors of Platelet Dense Granule Release. [Related pubchem assays: 1663 (Primary HTS), 1678 (Summary of Project)]; type: functional
[13] = biological target: Luciferin 4-monooxygenase (Photinus pyralis, UniProt P08659); test: inhibition of purified Photinus pyralis luciferase – biochemical, luminescence, dose response (AID 1891)
Luciferin 4-monooxygenase, sequence (P08659 whole entry): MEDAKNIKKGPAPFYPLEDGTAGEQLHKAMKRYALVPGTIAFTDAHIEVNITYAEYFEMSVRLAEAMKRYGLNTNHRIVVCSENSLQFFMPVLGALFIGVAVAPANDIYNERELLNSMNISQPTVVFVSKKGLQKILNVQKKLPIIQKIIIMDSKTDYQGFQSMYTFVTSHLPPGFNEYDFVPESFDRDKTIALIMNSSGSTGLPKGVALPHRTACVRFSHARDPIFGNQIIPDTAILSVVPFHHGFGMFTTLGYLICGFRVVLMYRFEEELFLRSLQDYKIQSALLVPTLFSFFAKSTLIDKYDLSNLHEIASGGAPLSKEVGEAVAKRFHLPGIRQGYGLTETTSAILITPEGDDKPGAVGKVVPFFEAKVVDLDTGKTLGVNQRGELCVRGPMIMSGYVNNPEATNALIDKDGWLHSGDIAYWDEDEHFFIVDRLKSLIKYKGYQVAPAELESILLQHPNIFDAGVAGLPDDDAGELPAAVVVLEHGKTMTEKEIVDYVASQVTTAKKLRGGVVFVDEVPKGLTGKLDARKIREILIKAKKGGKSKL

[14] = intracellular Trypanosoma cruzi inhibitors in host cells – cell-based, plate reader, cherry-pick samples, set 3, dose response (AID 651818); type: functional;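 also: compounds incubated with infected cells for about four days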
Paired box protein Pax-8 = Paired box protein Pax-8 (Homo sapiens, UniProt Q06710); test: PAX8 transcriptional activity inhibition in RMG-I – RMG-I cells, luciferase, cherry-pick, dose response (AID 687027); type: functional, cell-based;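 also: luciferase reporter driven by Pax8 target thyroperoxidase promoter measured by SteadyGlo luminescence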
Paired box protein Pax-8, sequence (Q06710 whole entry): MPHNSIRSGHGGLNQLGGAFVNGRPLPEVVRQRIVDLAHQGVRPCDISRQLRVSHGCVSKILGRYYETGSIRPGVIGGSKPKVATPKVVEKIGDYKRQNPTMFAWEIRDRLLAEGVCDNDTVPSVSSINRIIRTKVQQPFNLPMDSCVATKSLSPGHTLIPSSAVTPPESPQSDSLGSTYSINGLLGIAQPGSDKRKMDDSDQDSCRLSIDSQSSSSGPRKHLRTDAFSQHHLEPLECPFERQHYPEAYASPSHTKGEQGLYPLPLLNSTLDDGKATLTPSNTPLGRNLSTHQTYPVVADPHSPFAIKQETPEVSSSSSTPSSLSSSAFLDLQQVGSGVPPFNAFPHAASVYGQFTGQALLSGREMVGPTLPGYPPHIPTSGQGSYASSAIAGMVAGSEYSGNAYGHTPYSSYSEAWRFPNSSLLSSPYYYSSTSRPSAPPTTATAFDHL

## COc1cccc(C(=O)Oc2ccccc2/C=C\C(=O)c2cc3ccccc3o2)c1
[1]
  EC50: 6.66 µM (active)
[2]
  EC50: 7.8 µM (active)

## CNC(=O)Oc1ccc2ncccc2c1
Large T antigen
  IC50: > 100 µM (active)

## COC(=O)C1=C(C)N(c2ccc(F)c(Cl)c2)C(=O)C1
[1]
  EC50: 206 µM (active)

## CCOC(=O)N1CCN(c2ccc([N+](=O)[O-])cc2)CC1
[3]
  CC50: 26 µM (active)
[4]
  IC50: 30.7 µM (not active)

## CC(=O)C(Sc1nccc(-c2cccs2)n1)C(C)=O
[5]
  IC50: > 66 µM (inactive)
[6]
  IC50: > 66 µM (inactive)

## Oc1[nH]c2c(Cl)cc(Cl)cc2c1N=NC(S)=NCC1CCCO1 (stereo unspecified)
[7]
  EC50: 3.03 µM (active)
[8]
  EC50: 19.8 µM (inconclusive)
[1]
  EC50: 1.22 µM (active)
[2]
  EC50: 1.67 µM (active)

## Cc1ccc(SC2CC(=O)N(c3ccc4c(c3)OCCO4)C2=O)cc1 (stereo unspecified)
[5]
  IC50: > 66 µM (inactive)
[6]
  IC50: > 66 µM (inactive)

## C[n+]1cnc(-c2ccccc2)cc1-c1ccccc1
[9]
  IC50: 3.35 µM (active)

## Oc1[nH]c(S)nc2nc(S)nc1-2
[10]
  EC50: 32 µM (active)
[11]
  EC50: 8.3 µM (active)
Large T antigen
  IC50: 27.2 µM (active)

## O=[N+]([O-])c1ccc(-c2nc(=S)c3c(o2)CCCC3)cc1
[5]
  IC50: > 66 µM (inactive)
[6]
  IC50: > 66 µM (inactive)

## CCOc1nc(-c2ccc(OC)cc2)ccc1-c1noc(-c2cc(OC)c(OC)c(OC)c2)n1
[1]
  EC50: 25.5 µM (active)
[2]
  EC50: 21.1 µM (active)

## C=CCn1c(=S)[nH]c2scc(-c3ccco3)c2c1=O
Large T antigen
  IC50: 24.1 µM (active)

## CCOc1cc(C=O)cc(N=Nc2cccc([N+](=O)[O-])c2)c1O
cells
  IC50: 7.46 µM (active)
[7]
  EC50: 4.04 µM (active)
[8]
  EC50: > 150 µM (inactive)

## O=C(COC(=O)/C=C/c1ccco1)Nc1ncc(Cl)cc1Cl
[9]
  IC50: 17 µM (active)

## CC(=O)Oc1cc2c(C(=O)NCCCN3CCOCC3)c(C)oc2c2ccccc12
[1]
  EC50: 4.45 µM (active)
[2]
  EC50: 3.79 µM (active)

## C=CCNC(=O)COC(=O)c1c2c(nc3ccccc13)CCC2
[9]
  IC50: 7.39 µM (active)

## Cc1ccc(NC(=O)CC2SC(=O)N(c3ccccc3)C2=O)cc1 (stereo unspecified)
[12]
  EC50: 109 µM (active)
[13]
  EC50: > 112 µM (not active)
[5]
  IC50: > 66 µM (inactive)
[6]
  IC50: > 66 µM (inactive)

## Nc1cc(S(=O)(=O)c2ccc(O)c(N)c2)ccc1O
Large T antigen
  IC50: 20.5 µM (active)

## COc1ccc(N2C(=O)/C(=C/c3ccc(C)o3)C(=O)NC2=S)c(OC)c1
[10]
  EC50: > 300 µM (not active)
[11]
  EC50: 41.3 µM (active)
Large T antigen
  IC50: 34.3 µM (active)

## O=C(CSc1oc(-c2ccc(F)cc2)nc1S(=O)(=O)c1ccc(F)cc1)NCC1CCCO1 (stereo unspecified)
[1]
  EC50: 13.6 µM (active)
[2]
  EC50: 10.2 µM (active)

## Cc1cc2cc(CNC(=O)c3cccs3)ccc2n1C
[5]
  IC50: > 66 µM (inactive)
[6]
  IC50: > 66 µM (inactive)

## Cc1cccc(C(=O)OCC(=O)c2ccc(CC(=O)N3CCOCC3)s2)c1C
[9]
  IC50: 6.46 µM (active)

## C[C@H](CO)N1C[C@H](C)[C@@H](CN(C)Cc2ccc(Oc3ccccc3)cc2)Oc2ccc(N(C)C)cc2C1=O
[14]
  AC50: 2.27 µM (active)

## C[C@H]1CN([C@@H](C)CO)C(=O)c2cccc(NC(=O)CCCCCC(=O)Nc3ccccc3N)c2O[C@@H]1CN(C)CC1CCCCC1
[14]
  AC50: 1.95 µM (active)

## C[C@H](CO)N1C[C@H](C)[C@H](CN(C)Cc2ccc(C(=O)Nc3ccccc3N)cc2)Oc2ccc(NS(=O)(=O)c3ccc(F)cc3)cc2CC1=O
[14]
  AC50: 2.64 µM (active)

## Cc1ccc(S(=O)(=O)N(C)C[C@H]2Oc3ccc(NC(=O)Nc4cccc5ccccc45)cc3CC(=O)N([C@@H](C)CO)C[C@H]2C)cc1
[14]
  AC50: 4.81 µM (active)

## C[C@@H]1CN([C@@H](C)CO)C(=O)c2cccc(NC(=O)c3ccncc3)c2O[C@@H]1CN(C)Cc1ccc(Cl)c(Cl)c1
[14]
  AC50: 1.31 µM (active)

## COc1ccc(NC(=O)Nc2ccc3c(c2)CC(=O)N([C@H](C)CO)C[C@@H](C)[C@@H](CN(C)Cc2ccc(Oc4ccccc4)cc2)O3)cc1
Paired box protein Pax-8
  AC50: 23.5 µM (active)
[14]
  AC50: 2.09 µM (active)

## COc1ccc(S(=O)(=O)Nc2ccc3c(c2)C(=O)N([C@H](C)CO)C[C@H](C)[C@H](CN(C)Cc2ccc(C(F)(F)F)cc2)OCCCC[C@@H](C)O3)cc1
[14]
  AC50: 3.2 µM (active)

## C[C@@H]1CN([C@@H](C)CO)C(=O)c2cccc(NC(=O)Nc3ccc(C(F)(F)F)cc3)c2O[C@@H]1CN(C)S(=O)(=O)c1ccc(Cl)cc1
[14]
  AC50: 2.79 µM (active)

## C[C@@H]1CN([C@H](C)CO)C(=O)Cc2cc(NC(=O)NC3CCCCC3)ccc2O[C@H]1CN(C)Cc1ccc(C(=O)Nc2ccccc2N)cc1
[14]
  AC50: 5.26 µM (active)

## C[C@@H]1CCCCO[C@H](CN(C)Cc2ccc(C(F)(F)F)cc2)[C@@H](C)CN([C@H](C)CO)C(=O)c2cc(NC(=O)Nc3ccc(C(F)(F)F)cc3)ccc2O1
[14]
  AC50: 3.15 µM (active)

## O=C(C/C=N\OCc1ccc([N+](=O)[O-])cc1)Nc1ccccc1
cells
  IC50: 16.1 µM (active)

## O=C(Cc1nnc(NC(=O)c2ccccc2)s1)N/N=C/c1ccc(O)cc1
[9]
  IC50: 8.5 µM (active)
